These results are taken from patent publication US8937155B2 (priority 2010, dated 2015).

≈ marks a conversion by molar mass, not a printed value. Entries after “also recorded” stand apart in the source; their conditions may differ. Ends that are not written are not given here. Peptide text beside a SMILES is read from it.

The nature of data set [1]: in vitro. Particulars: for stability relative to the original oncocin sequence: bacterial lysate of E. coli BL21 AI; for half-life at 150 μg/mL: pH 7.4. On the procedure:
Bacteria (E. coli BL21 AI) were cultured over night at 37° C. in nutrient broth (Carl Roth GmbH & Co. KG, Karlsruhe, Germany). This suspension was centrifuged (5000 rpm, 4° C.) in a AVANTI® J=20-XP centrifuge using a JLA-10500 rotor (Beckman coulter, Fullerton, USA). The pellet was washed with phosphate buffered saline (PBS, 8.7 mmol/L Na2HPO4, 1.2 mmol/L KH2PO4, 150 mmol/L NaCl, pH 7.4) and centrifuged in an ALLEGRA® 21 R centrifuge (Beckman Coulter, 3000 rpm, 4° C., 20 min). The pellet was resuspended in PBS (60 mg/mL) and lysed on ice using ultra sonic (2×2 min with 2 s on/2 s off) applied via micro tip (750 W, 40% amplitude; Fisher Biobiock Scientific, Illkirch, France). One mL aliquots were centrifuged (15400 rpm, 20 min, 4° C.) and the supernatant was stored at −80′C.
The peptide concentration was determined with a Bradford protein assay (Bradford M M. Rapid and Sensitive Method for Quantitation of Microgram Quantities of Protein Utilizing Principle of Protein-Dye Binding. Analytical Biochemistry 72: 248-54, 1976). Briefly, 0.01% (w/v) Coomassie brilliant blue G250 was dissolved in 5% aqueous ethanol containing 8.5% orthophosphoric (Bradford reagent). The mixture was incubated first at 60° C. for 1 h and then at room temperature for 12 h. After filtration 200 μl of the reagent were mixed with 50 μl sample solution in a polystyrole 96-well plate and incubated for 15 min in the dark. The absorption was measured at 595 nm against the negative control (50 μl PBS+200 μL Bradford reagent). The protein concentration was calculated from a calibration curve of bovine serum albumin.
The stability against bacterial proteases was determined in a bacterial lysate of E. coli BL21 AI adjusted with PBS to a protein concentration of 0.5 mg/mL. Peptides were dissolved in the bacterial lysate at a final concentration of 150 μg/mL and incubated at 37° C. Aliquots were taken in triplicates after 0, 30, 60, 120, and 240 min and precipitated by addition of trichloroacetic acid to a final concentration of 3% (v/v). After 10 minutes on ice, the samples were centrifuged, the supernatant neutralized with sodium hydroxide solution (1 mol/L) and stored at −20° C. The samples were analyzed by RP-HPLC (Jupiter C18-column) using a linear aqueous acetonitrile or methanol gradient containing 0.1% (v/v) TFA. Metabolites were identified by MALDI-TOF-MS.

The test system of data set [2] is E. coli BL21 AI. In words: MIC, liquid broth microdilution assay. It is filed as cell-based, Escherichia coli. Particulars: 1% TSB, 37° C., 20±2 h. On the procedure: (§1) Minimal inhibitory concentrations were determined in triplicates by a liquid broth microdilution assay in sterile 96-well plates (Greiner Bio-One GmbH, Frickenhausen, Germany) using a total volume of 100 μL per well (Amsterdam, D. Susceptibility testing of antimicrobials in liquid media in Antibiotics in laboratory medicine (ed. Lorian, V.) 52-111 (Lippincott Williams & Wilkins, Baltimore, 1996)). Aqueous peptide solutions (1 mg/mL) were serially two-fold diluted in 1% tryptic soy broth (TSB). A typical dilution series ranged from 128 μg/mL to 0.5 μg/mL in eight steps. Overnight cultures of bacteria were diluted with 1% TSB to 1.5×10^7 cells/mL (Klebsiella pneumoniae DSM 681, Escherichia coli BL21AI and DSM 10233) and 4×10^7 cells/mL (Micrococcus luteus ATCC 10240). Fifty μL of these solutions were added to each well gaining a starting cell concentration of 7.5×10^5 cells/well and 2×10^6 cells/well, respectively. The plates were incubated at 37° C. and the absorbance of each well was measured after 20±2 h at 595 nm.
Background: Broth dilution looks for growth in wells or tubes with falling amounts of substance.

In data set [3] the test system is M. luteus DSM 10240. It is filed as cell-based, Micrococcus luteus. Particulars: DSM 10240, 2 h. On the procedure:
as §1, with “The plates were incubated at 37° C. and the absorbance of each well was measured after 20±2 h at 595 nm.” left out

Data set [4] can be described thus: in vitro. Particulars: mouse.
Experimental: (§2) The serum stabilities of all peptides were determined in pure and 25% (v/v) aqueous pooled mouse serum (PAA Laboratories GmbH, Pasching, Austria) (Hoffmann R, Vasko M, & Otvos L. Serum stability of phosphopeptides. Analytica Chimica Acta 352: 319-25, 1997). Peptides were dissolved in serum at a final concentration of 75 μg/mL and incubated at 37° C. Aliquots taken in triplicates after 0, 30, 60, 120 and 240 min were precipitated by addition of trichloroacetic acid to a final concentration of 3% (v/v). After 10 minutes on ice, the samples were centrifuged, the supernatant neutralized with sodium hydroxide solution (1 mol/L) and stored at −20° C. The samples were analyzed on the analytical Jupiter C18-column using a linear aqueous acetonitrile or methanol gradient containing 0.1% (v/v) TFA. The metabolites were identified by MALDI-TOF-MS.
Data set [5] relates to E. coli DSM 10233. Type of data set: cell-based, Escherichia coli. Particulars: DSM 10233, 2 h. How it is done:
as §1, with “The plates were incubated at 37° C. and the absorbance of each well was measured after 20±2 h at 595 nm.” left out

Data set [6] relates to K pneumoniae DSM 681. It is filed as cell-based, Klebsiella pneumoniae. Particulars: DSM 681, 2 h. On the procedure:
as §1, with “The plates were incubated at 37° C. and the absorbance of each well was measured after 20±2 h at 595 nm.” left out

For data set [7] the following is noted: full mouse serum.
Experimental: as §2
Data set [8] can be described thus: bacterial lysate of E. coli BL21 AI. Particulars: 37° C., up to 240 min.
A short description of data set [9]: full mouse serum (pooled mouse serum, PAA Laboratories). As to conditions: 37° C., up to 480 min.

One may read the half-life as the time in which the quantity being followed falls by half. A lower half-life goes with rapid decline. On to `CC(C)C[C@H](NC(=O)[C@H](Cc1ccc(O)cc1)NC(=O)[C@@H]1CCCN1C(=O)[C@@H]1CCCN1C(=O)[C@H](CCCCN)NC(=O)[C@H](CC(=O)O)NC(=O)[C@@H](N)C(C)C)C(=O)N1CCC[C@H]1C(=O)N[C@@H](CCCNC(=N)N)C(=O)N1CCC[C@H]1C(=O)N[C@@H](CCCNC(=N)N)C(=O)N1CCC[C@H]1C(=O)N1CCC[C@H]1C(=O)N[C@@H](CCCNC(=N)N)C(=O)N[C@@H](CCCN)C(=O)N[C@H](C(=O)N[C@@H](Cc1ccc(O)cc1)C(=O)N[C@@H](CC(N)=O)C(=O)N[C@@H](CCCN)C(N)=O)[C@@H](C)O` [SEQ ID NO. 2, VDKPPYLPRPRPPROTYNO-NH2] (HELM PEPTIDE1{V.D.K.P.P.Y.L.P.R.P.R.P.P.R.[Orn].T.Y.N.[Orn].[am]}$$$$V2.0; N-terminus assumed), for which the “stability relative to the original oncocin sequence” value in data set [1] is “at least three times more stable”. In data set [1] (cells or culture medium), this molecule showed a half-life at 150 μg/mL of 2.83 h. Moreover, the “minimal inhibitory concentration (MIC) E. coli BL21 AI” value in data set [2] amounted to 4 µg/mL (≈ 1.74 µM). Also, the “minimal inhibitory concentration (MIC) M. luteus DSM 10240” value in data set [3] stood at 8 µg/mL (≈ 3.49 µM). This molecule displayed a half-life at 75 μg/mL in data set [4] (full (pure) pooled mouse serum) of 2 h.

`CC(C)C[C@H](NC(=O)[C@H](Cc1ccc(O)cc1)NC(=O)[C@@H]1CCCN1C(=O)[C@@H]1CCCN1C(=O)[C@H](CCCCN)NC(=O)[C@H](CC(=O)O)NC(=O)[C@@H](N)C(C)C)C(=O)N1CCC[C@H]1C(=O)N[C@@H](CCCNC(=N)N)C(=O)N1CCC[C@H]1C(=O)N[C@@H](CCCNC(=N)N)C(=O)N1CCC[C@H]1C(=O)N1C[C@H](O)C[C@H]1C(=O)N[C@@H](CCCNC(=N)N)C(=O)N1C[C@H](O)C[C@H]1C(=O)N[C@H](C(=O)N[C@@H](Cc1ccc(O)cc1)C(=O)N[C@@H](CC(N)=O)C(=O)N[C@@H](CCCN)C(N)=O)[C@@H](C)O` [SEQ ID NO. 3, VDKPPYLPRPRP-4tHyp-R-4tHyp-TYNO-NH2] (HELM PEPTIDE1{V.D.K.P.P.Y.L.P.R.P.R.P.[Hyp].R.[Hyp].T.Y.N.[Orn].[am]}$$$$V2.0; N-terminus assumed): the “stability relative to the original oncocin sequence” value in data set [1] was “at least three times more stable”. Also, the half-life at 150 μg/mL in data set [1] (cells or culture medium) came to 4 h. Also, the figures for the “minimal inhibitory concentration (MIC) E. coli BL21 AI” value in data set [2] and in data set [2] (listed as 3) were 2 to 4 µg/mL and 4 µg/mL (≈ 1.73 µM), respectively. Also, the “minimal inhibitory concentration (MIC) E. coli DSM 10233” value in data set [5] is 2 to 4 µg/mL. Besides, the “minimal inhibitory concentration (MIC) K pneumoniae DSM 681” value in data set [6] stood at 8 µg/mL (≈ 3.47 µM). In addition, the “minimal inhibitory concentration (MIC) M. luteus DSM 10240” value in data set [3] came to 32 µg/mL (≈ 13.9 µM). Moreover, the “starting derivative not degraded after 480 min” value in [7] is given as “(60%)”. The same molecule returned a half-life at 75 μg/mL in [4] (full (pure) pooled mouse serum) of over 8 h.

By amount remaining is commonly meant the share of the starting amount still present when the sample was taken. Regarding `CC[C@H](C)[C@H](NC(=O)[C@H](CCCN)NC(=O)[C@H](CCCNC(=N)N)NC(=O)[C@@H]1CCCN1C(=O)[C@@H]1CCCN1C(=O)[C@H](CCCNC(=N)N)NC(=O)[C@@H]1CCCN1C(=O)[C@H](CCCNC(=N)N)NC(=O)[C@@H]1CCCN1C(=O)[C@H](CC(C)C)NC(=O)[C@H](Cc1ccc(O)cc1)NC(=O)[C@@H]1CCCN1C(=O)[C@@H]1CCCN1C(=O)[C@H](CCCCN)NC(=O)[C@H](CC(=O)O)NC(=O)[C@@H](N)C(C)C)C(=O)N[C@@H](Cc1ccc(O)cc1)C(=O)N[C@@H](CC(N)=O)C(=O)N[C@@H](CCCN)C(N)=O` [SEQ ID NO. 4, VDKPPYLPRPRPPROIYNO-NH2, reference compound] (HELM PEPTIDE1{V.D.K.P.P.Y.L.P.R.P.R.P.P.R.[Orn].I.Y.N.[Orn].[am]}$$$$V2.0; N-terminus assumed), the “minimal inhibitory concentration (MIC) E. coli BL21 AI” value in data set [2] came to 8 µg/mL (≈ 3.47 µM). The “minimal inhibitory concentration (MIC) M. luteus DSM 10240” value in data set [3] came to 8 µg/mL (≈ 3.47 µM). In data set [4] (full (pure) pooled mouse serum), this molecule had a half-life at 75 μg/mL of 2.92 h. In addition, in data set [4] (full (pure, undiluted) pooled mouse serum), the amount remaining at 8 h, 75 μg/mL was 60%.

For the molecule VDKPPYLPRPRPPRRIYNR-NH2, the cleaved bond entry in data set [8] is “Pro10-Arg11; also recorded: Pro13-Arg14; also recorded: Arg15-Ile16”; in data set [9], “Arg15-Ile16, major; also recorded: Asn18-Arg19, major”.

“VDKPPYLPRPRPPRRIYNR-NH2 [SEQ ID NO. 1, VDKPPYLPRPRPPRRIYNR-NH2, reference compound]” returned a half-life at 150 μg/mL in data set [1] (Escherichia coli) of 1 h. Besides, the “minimal inhibitory concentration (MIC) E. coli BL21 AI” value in data set [2] was determined as 4 µg/mL. In addition, the “minimal inhibitory concentration (MIC) E. coli DSM 10233” value in data set [5] is 16 µg/mL. Moreover, in data set [6], the “minimal inhibitory concentration (MIC) K pneumoniae DSM 681” value was found to be 4 µg/mL. Besides, the “minimal inhibitory concentration (MIC) M. luteus DSM 10240” value in data set [3] was 8 µg/mL. Also, the half-life at 75 μg/mL in data set [4] (pure (full) pooled mouse serum) came to 0.5 h.
